This assay relates to Shionogi mouse mammary carcinoma cells. The assay can be described thus: Antiandrogenic activity on DHT-stimulated Shionogi mouse mammary carcinoma cell number. The assay is classed as cell-based. To be noted: for IC50: Mus musculus; for A = Ki OH-Flu/Ki compound: ratio of Ki of hydroxyflutamide versus tested compound, higher values preferable.
Setting [1] is: inhibition of DHT-stimulated Shionogi cell number, 10-12 days, read-out: Antiandrogenic activity IC50.
[2] abbreviates: inhibition of DHT-stimulated Shionogi cell number.
Where [3] appears, read: read-out: Antiandrogenic activity IC50 (nM).

The structures appear in SMILES notation. Read-outs that look alike come from different tables or passages of the source. Some results are limits rather than exact numbers.

One may read the IC50 as the midpoint of a concentration-inhibition curve. Regarding `CCN(CC)C(=O)c1ccc(-c2ccc(C#N)c(C(F)(F)F)c2)cc1` [EM-3987], the IC50 under setting [1] is > 500 nM. Moreover, the “A = Ki OH-Flu/Ki compound” value under setting [2] is listed as <0.2.
Turning to `CCCN(CCC)C(=O)c1cc(F)ccc1-c1ccc(C#N)c(C(F)(F)F)c1` [EM-4845], the IC50 under setting [1] was > 500 nM. In addition, the “A = Ki OH-Flu/Ki compound” value under setting [2] is <0.2.
As for `N#Cc1ccc(-c2ccc(F)cc2C(=O)Nc2ccccc2)cc1C(F)(F)F` [EM-4864], the IC50 under setting [3] is > 500 nM. Under setting [2], the “A = Ki OH-Flu/Ki compound” value is <0.2.
On to `N#Cc1ccc(-c2ccc(F)cc2F)cc1C(F)(F)F` [EM-3975], for which the IC50 under setting [1] was found to be 131 nM. Under setting [2], the “A = Ki OH-Flu/Ki compound” value came out at 0.77.
Taken in the same sequence, the figures for `COc1ccc(-c2ccc(C#N)c(C(F)(F)F)c2)c(C(N)=O)c1` [EM-4905] were > 500 nM and <0.2.
For the compound `N#Cc1ccc(-c2ccc(Br)c(C(F)(F)F)c2)cc1` [EM-4177], the IC50 under setting [1] is > 500 nM. Besides, under setting [2], the “A = Ki OH-Flu/Ki compound” value is given as <0.2.
Consider `N#Cc1ccc(-c2ccc(F)c(F)c2)cc1C(F)(F)F` [EM-4047], for which, under setting [3], the IC50 was > 100 nM. Under setting [2], the “A = Ki OH-Flu/Ki compound” value is on record as <1.
In the case of `Cc1cc(-c2ccc(C#N)c(C(F)(F)F)c2)ccc1C#N` [EM-4069], under setting [1], the IC50 is 110 nM. Moreover, the “A = Ki OH-Flu/Ki compound” value under setting [2] came out at 0.7.
Taken in the same sequence, the figures for `N#Cc1ccc(-c2ccc(F)cc2C(N)=O)cc1C(F)(F)F` [EM-4171, 4′-Cyano-4-fluoro-3′-trifluoromethyl-biphenyl-2-carboxylic acid amide] were 943 nM and 0.2.
Taken in the same sequence, the figures for `N#Cc1ccc(-c2c(NC(=O)c3ccc(Cl)cc3)cc(F)cc2C(N)=O)cc1C(F)(F)F` [EM-5094] were > 500 nM and <0.2.
For `N#Cc1ccc(-c2c(F)cc(F)cc2C(F)(F)F)cc1C(F)(F)F` [EM-5004] the same measures were > 500 nM and <0.2.
With `N#Cc1ccc(-c2ccc(N)cc2C(F)(F)F)cc1C(F)(F)F` [EM-4154], the IC50 under setting [1] is 145 nM. Besides, the “A = Ki OH-Flu/Ki compound” value under setting [2] is recorded as 0.7.
Taken in the same sequence, the figures for `N#Cc1ccc(-c2ccc(C#N)cc2)cc1` [EM-3993] were > 500 nM and <0.2.
Taken in the same sequence, the figures for `N#Cc1ccc(-c2ccc(F)cc2C(=O)NCc2ccccc2)cc1C(F)(F)F` [EM-5085] were > 500 nM and <0.2.
As to `N#Cc1ccc(-c2ccc(Cl)cc2)cc1C(F)(F)F` [EM-3703], under setting [3], the IC50 was 97 nM. In addition, under setting [2], the “A = Ki OH-Flu/Ki compound” value came to 0.3.
For `N#Cc1ccc(-c2ccc(F)c(C(F)(F)F)c2)cc1C(F)(F)F` [EM-4093], under setting [1], the IC50 is > 500 nM. For the same compound, under setting [2], the “A = Ki OH-Flu/Ki compound” value is reported as <0.2.
Turning to `CN(C)CCN(C)C(=O)c1cc(F)ccc1-c1ccc(C#N)c(C(F)(F)F)c1` [EM-4980], the IC50 under setting [1] was > 500 nM. For the same compound, the “A = Ki OH-Flu/Ki compound” value under setting [2] is <0.2.
On to `CCCCN(CCCC)C(=O)c1cc(F)ccc1-c1ccc(C#N)c(C(F)(F)F)c1` [EM-4844], for which, under setting [1], the IC50 was > 500 nM. Further, the “A = Ki OH-Flu/Ki compound” value under setting [2] is recorded as <0.2.
Regarding `N#Cc1ccc(-c2ccc(F)cc2[N+](=O)[O-])cc1C(F)(F)F` [EM-4234], the IC50 under setting [3] was determined as 43.2 nM. Under setting [2], the “A = Ki OH-Flu/Ki compound” value came out at 3.2.
As for `CNC(=O)c1cc(F)ccc1-c1ccc(C#N)c(C(F)(F)F)c1` [EM-4961], under setting [1], the IC50 is > 500 nM. For the same compound, the “A = Ki OH-Flu/Ki compound” value under setting [2] is recorded as <0.2.
`C[S+]([O-])c1ccc(-c2ccc(C#N)c(C(F)(F)F)c2)cc1` (stereo not drawn) [EM-3812]: the IC50 under setting [1] is > 500 nM. Further, the “A = Ki OH-Flu/Ki compound” value under setting [2] is listed as <0.2.
On to `CCOc1ccc(-c2ccc(C#N)c(C(F)(F)F)c2)c(C(N)=O)c1` [EM-4925], for which the IC50 under setting [1] is > 500 nM. Under setting [2], the “A = Ki OH-Flu/Ki compound” value is listed as <0.2.
Taken in the same sequence, the figures for `N#Cc1ccc(-c2ccc(C#N)c(C(F)(F)F)c2)cc1C(F)(F)F` [EM-4012] were > 500 nM and <0.2.
Regarding `COc1ccc(-c2ccc(C#N)c(C(F)(F)F)c2)c(Cl)c1` [EM-4190], the IC50 under setting [1] is 162 nM. Besides, the “A = Ki OH-Flu/Ki compound” value under setting [2] came out at 0.9.
For `COc1ccc(-c2ccc([N+](=O)[O-])cc2)cc1` [EM-3234] the same measures were > 500 nM and <0.2.
With `N#Cc1ccc(-c2c(F)cc(F)cc2[N+](=O)[O-])cc1C(F)(F)F` [EM-4948], the IC50 under setting [1] is > 500 nM. The “A = Ki OH-Flu/Ki compound” value under setting [2] was <0.2.
Taken in the same sequence, the figures for `CCCCNC(=O)c1cc(F)ccc1-c1ccc(C#N)c(C(F)(F)F)c1` [EM-4856] were > 500 nM and <0.2.
`CS(=O)(=O)Nc1ccc(-c2ccc(C#N)c(C(F)(F)F)c2)cc1` [EM-4244]: under setting [1], the IC50 was > 500 nM. The “A = Ki OH-Flu/Ki compound” value under setting [2] was <0.2.
With `N#Cc1ccc(-c2ccc(C#N)c(C(F)(F)F)c2)c([N+](=O)[O-])c1` [EM-4253], the IC50 under setting [1] is > 500 nM. The “A = Ki OH-Flu/Ki compound” value under setting [2] is reported as <0.2.
For the compound `COc1ccc(-c2ccc(C#N)c(C(F)(F)F)c2)cc1` [EM-3394], under setting [3], the IC50 stood at 49.5 nM. Further, the “A = Ki OH-Flu/Ki compound” value under setting [2] worked out at 1.1.
Take `CCNC(=O)c1cc(F)ccc1-c1ccc(C#N)c(C(F)(F)F)c1` [EM-4866]: the IC50 under setting [1] was > 500 nM. Besides, the “A = Ki OH-Flu/Ki compound” value under setting [2] is reported as <0.2.
With `C[C@@](O)(c1cccc(-c2ccc(C#N)c(C(F)(F)F)c2)c1)C(F)(F)F` [EM-4264], the IC50 under setting [3] was 54 nM. For the same compound, under setting [2], the “A = Ki OH-Flu/Ki compound” value is 1.6.
In the case of `N#Cc1ccc(-c2ccc(F)c(Cl)c2)cc1C(F)(F)F` [EM-4216], the IC50 under setting [1] was > 500 nM. Besides, the “A = Ki OH-Flu/Ki compound” value under setting [2] was <0.2.
For `N#Cc1ccc(-c2ccc(F)cc2)cc1` [EM-3978] the same measures were > 500 nM and <0.2.
For `CS(=O)(=O)c1cc(-c2ccc(F)cc2F)ccc1C#N` [EM-4292] the same measures were > 500 nM and <0.2.
Taken in the same sequence, the figures for `N#Cc1cccc(-c2ccc(C#N)c(C(F)(F)F)c2)c1` [EM-3729] were > 500 nM and <0.2.
For `N#Cc1ccc(-c2ccccc2F)cc1C(F)(F)F` [EM-3976], under setting [1], the IC50 was > 500 nM. For the same compound, the “A = Ki OH-Flu/Ki compound” value under setting [2] was <0.2.
Taken in the same sequence, the figures for `N#Cc1ccc(-c2ccc(Cl)c(C(F)(F)F)c2)cc1` [EM-4248] were > 500 nM and <0.2.
As for `N#Cc1ccc(-c2ccc(F)cc2C(=O)N2CCOCC2)cc1C(F)(F)F` [EM-5021], the IC50 under setting [1] was > 500 nM. The “A = Ki OH-Flu/Ki compound” value under setting [2] was <0.2.
On to `N#Cc1ccc(-c2ccc([N+](=O)[O-])cc2)cc1C(F)(F)F` [EM-4149], for which the IC50 under setting [1] was > 500 nM. The “A = Ki OH-Flu/Ki compound” value under setting [2] was <0.2.
For `N#Cc1ccc(-c2ccc(F)c([N+](=O)[O-])c2)cc1C(F)(F)F` [EM-4230] the same measures were > 500 nM and <0.2.
With `CSc1cc(-c2ccc(F)cc2F)ccc1C#N` [EM-4288], under setting [1], the IC50 was 28 nM. In addition, under setting [2], the “A = Ki OH-Flu/Ki compound” value is given as 4.4.
Regarding `N#Cc1ccccc1-c1ccc(C#N)c(C(F)(F)F)c1` [EM-4071], the IC50 under setting [3] was 33 nM. Also, under setting [2], the “A = Ki OH-Flu/Ki compound” value is reported as 2.5.
With `N#Cc1cc(F)ccc1-c1ccc(C#N)c(C(F)(F)F)c1` [EM-4096], the IC50 under setting [1] is > 500 nM. The “A = Ki OH-Flu/Ki compound” value under setting [2] is given as <0.2.
For the compound `N#Cc1ccc(-c2ccc(N)cc2)cc1` [EM-4049], the concentration for half-maximal inhibition (IC50) under setting [1] was > 500 nM. Moreover, the “A = Ki OH-Flu/Ki compound” value under setting [2] is <0.2.
For `N#Cc1ccc(-c2ccc(Br)c([N+](=O)[O-])c2)cc1` [EM-4338] the same measures were > 500 nM and <0.2.
Taken in the same sequence, the figures for `CC(=O)Nc1cc(-c2ccc(C#N)c(C(F)(F)F)c2)c(C(N)=O)cc1F` [EM-5002] were > 500 nM and <0.2.
Taken in the same sequence, the figures for `Cc1ccc(-c2ccc(C#N)c(C(F)(F)F)c2)c(C(F)(F)F)c1` [EM-4185] were 193 nM and 0.7.
Turning to `N#Cc1cc(F)c(-c2ccc(F)cc2F)cc1Cl` [EM-5111], the IC50 under setting [1] is > 500 nM. Under setting [2], the “A = Ki OH-Flu/Ki compound” value was <0.2.
For the compound `N#Cc1ccc(-c2ccc(C#N)c(C(F)(F)F)c2)cc1F` [EM-4065], under setting [3], the IC50 is > 500 nM. Moreover, under setting [2], the “A = Ki OH-Flu/Ki compound” value is on record as <0.2.
For the compound `COc1ccc(-c2c(F)cc(F)cc2F)cc1C(F)(F)F` [EM-4833], the IC50 under setting [1] was > 500 nM. In addition, the “A = Ki OH-Flu/Ki compound” value under setting [2] was <0.2.
For `N#Cc1ccc(-c2ccc(F)cc2C(=O)Nc2ccncc2)cc1C(F)(F)F` [EM-5019] the same measures were > 500 nM and <0.2.
In the case of `N#Cc1ccc(-c2ccc(C#N)c(C(F)(F)F)c2)c(Cl)c1` [EM-4205], the IC50 under setting [3] was determined as 52 nM. In addition, the “A = Ki OH-Flu/Ki compound” value under setting [2] was 3.0.
As for `CSc1ccc(-c2ccc(C#N)c(C(F)(F)F)c2)cc1` [EM-3732], the IC50 under setting [1] is > 500 nM. Also, the “A = Ki OH-Flu/Ki compound” value under setting [2] is listed as <0.2.
Taken in the same sequence, the figures for `CS(=O)(=O)c1cc(C#N)ccc1-c1ccc(C#N)c(C(F)(F)F)c1` [EM-4255] were > 500 nM and <0.2.
For `CC(=O)Nc1ccc(-c2ccc(C#N)c(C(F)(F)F)c2)cc1` [EM-4243] the same measures were > 500 nM and <0.2.
`N#Cc1ccc(-c2c(F)cc(F)cc2F)cc1C(F)(F)F` [EM-4203]: under setting [1], the IC50 was found to be 280 nM. Further, the “A = Ki OH-Flu/Ki compound” value under setting [2] came to 0.6.
For `N#Cc1ccc(-c2ccc(C#N)c(C(F)(F)F)c2)c(F)c1` [EM-4189], under setting [1], the IC50 amounted to 132 nM. Moreover, the “A = Ki OH-Flu/Ki compound” value under setting [2] is 1.1.
For `CCN(CC)C(=O)c1cc(F)ccc1-c1ccc(C#N)c(C(F)(F)F)c1` [EM-4841] the same measures were > 500 nM and <0.2.
For `N#Cc1ccc(-c2ccc(Br)cc2C(F)(F)F)cc1[N+](=O)[O-]` [EM-4792] the same measures were > 500 nM and <0.2.
